Laboratory results from patent US11390631B1, “Benzodiazepine derivatives as RSV inhibitors” (priority 2015, dated 2022).

Tested on: Human RSV-A (“Long” strain)
Test: RSV-A assay: inhibition of cytopathic effect in Hep-2 cells, ATPlite readout
Assay type: cell-based, Human respiratory syncytial virus (HRSV)
Details: Hep-2 cells, MOI 0.1, 5-day incubation, ATPlite; read-out: Human RSV-A (“Long” strain) EC50
Summary of the method: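 Cytopathic-effect protection was read as ATP content (ATPlite luminescence) after a 5-day incubation. Setup: Hep-2 cells at 8,000 per well, RSV-A Long at MOI 0.1, 2-fold serial compound dilutions in duplicate. Cytotoxicity (CC50) was measured on an identical uninfected plate run in parallel.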

Structure (SMILES)	EC50 [nM]
COC[C@@H]1C[C@H]1c1cc(C(F)(F)F)cnc1-c1nnc(N[C@@H]2N=C(c3ccccc3)c3ccccc3NC2=O)o1 [Example 481]	> 800
O=C1Nc2ccccc2C(c2ccccc2)=N[C@H]1Nc1nnc(-c2cn(CC(F)(F)F)nc2N2CCOCC2)o1 [Example 489]	> 800
COC[C@H]1C[C@@H]1c1cc(C(F)(F)F)cnc1-c1nnc(N[C@@H]2N=C(c3ccccc3)c3ccccc3NC2=O)o1 [Example 483]	> 800
COC[C@H]1C[C@@H]1c1cc(C(F)(F)F)cnc1-c1nnc(N[C@H]2N=C(c3ccccc3)c3ccccc3NC2=O)o1 [Example 482]	> 800

Same assay, conditions: human respiratory syncytial virus, HEp-2, 120 h, read-out: Human RSV-A (“Long” strain) EC50

Structure (SMILES)	EC50 [nM]
O=C1Nc2ccccc2C(c2ccccc2)=NC1Nc1nnc(-c2cc(F)ccc2N2CCOCC2)o1 (centres unmarked) [Example 119]	400 to 800
O=C1Nc2ccccc2C(c2ccccc2)=NC1Nc1nnc(-c2ccccc2N2CCOCC2)[nH]1 (centres unmarked) [Example 367]	> 800
N#Cc1ccc2nccc(-c3nnc(N[C@H]4N=C(c5ccccc5)c5ccccc5NC4=O)o3)c2c1 [Example 435]	> 800
O=C1Nc2ccccc2C(c2ccccc2)=NC1Nc1ncc(-c2ccc(Br)cc2)o1 (centres unmarked) [Example 370]	> 800
O=C1Nc2ccccc2C(c2ccccc2)=NC1Nc1nnc(C23CCN(CC2)CC3)o1 (centres unmarked) [Example 287]	> 800
O=C1Nc2ccccc2C(c2ccccc2)=NC1Nc1nnc(-c2cccnc2N2CC(F)(F)C2)o1 (centres unmarked) [Example 259]	> 800
O=C1Nc2ccccc2C(c2ccccc2)=NC1Nc1nnc(-c2cccc(F)c2N2CCOCC2)o1 (centres unmarked) [Example 148]	> 800
CN1CCN(c2ncccc2-c2nnc(NC3N=C(c4ccccc4)c4ccccc4NC3=O)o2)CC1 (centres unmarked) [Example 237]	> 800
O=C1Nc2ccccc2C(c2ccccc2F)=NC1Nc1nnc(-c2ccc(F)cc2)o1 (centres unmarked) [Example 379]	> 800
N#Cc1cnc(-c2nnc(N[C@H]3N=C(c4ccccc4)c4cccc(F)c4NC3=O)o2)c(N2CCOCC2)c1 [Example 361]	< 400
O=C1Nc2ccccc2C(c2ccccc2)=NC1Nc1nnc(C2CC2)[nH]1 (centres unmarked) [Example 372]	> 800
O=C1Nc2ccccc2C(c2ccccc2)=N[C@@H]1Nc1nnc(-c2occc2N2CCOCC2)o1 [Example 348]	< 400
COc1cc(-c2nnc(NC3N=C(c4ccccc4)c4ccccc4NC3=O)o2)ccn1 (centres unmarked) [Example 56]	> 800
Cc1nc(-c2nnc(N[C@H]3N=C(c4ccccc4)c4ccccc4NC3=O)o2)c(Cl)s1 [Example 344]	> 800
CN(c1nnc(-c2ccc(F)cc2)o1)C1N=C(c2ccccc2)c2ccccc2NC1=O (centres unmarked) [Example 209]	> 800
COC[C@@H]1CCCN1c1sc(C(F)(F)F)nc1-c1nnc(N[C@H]2N=C(c3ccccc3)c3ccccc3NC2=O)o1 [Example 457]	> 800
O=C1Nc2ccccc2C(c2ccccc2)=N[C@@H]1Nc1nnc(-c2ncc(C(F)(F)F)cc2NC2COC2)o1 [Example 469]	< 400
O=C1Nc2ccccc2C(c2ccccc2)=N[C@@H]1Nc1nnc(-c2ccsc2N2CCOCC2)o1 [Example 471]	< 400
Cc1nc(-c2nnc(N[C@H]3N=C(c4ccccc4)c4ccccc4NC3=O)o2)c(N2CCOCC2)o1 [Example 337]	< 400
O=C1Nc2ccccc2C(c2ccccc2)=N[C@@H]1Nc1nnc(-c2nc(C(F)(F)F)sc2NCC2COC2)o1 [Example 475]	400 to 800
O=C1Nc2ccccc2C(c2ccccc2)=N[C@@H]1Nc1nnc(-c2ncc(C(F)(F)F)cc2NC[C@@H]2CCCO2)o1 [Example 419]	400 to 800
O=C1Nc2ccccc2C(c2ccccc2)=NC1Nc1nnc(-c2cccnc2N2CCC(O)CC2)o1 (centres unmarked) [Example 255]	> 800
CC(C)(O)CNc1cc(C(F)(F)F)cnc1-c1nnc(N[C@H]2N=C(c3ccccc3)c3ccccc3NC2=O)o1 [Example 297]	< 400

Structure (SMILES)	EC50 [nM]
O=C1Nc2ccccc2C(c2ccccc2)=NC1Nc1nnc(-c2cccnc2N2CCCC(F)(F)C2)o1 (centres unmarked) [Example 246]	> 800
C[C@H]1COCCN1c1ncccc1-c1nnc(NC2N=C(c3ccccc3)c3ccccc3NC2=O)o1 (some centres unmarked) [Example 261]	> 800
O=C1Nc2ccccc2C(c2ccccc2)=NC1Nc1nnc(-c2ccc(-n3ccnc3)cc2)o1 (centres unmarked) [Example 231]	< 400
O=C1Nc2ccccc2C(c2ccccc2)=NC1Nc1nnc(-c2cnccc2N2CCOCC2)o1 (centres unmarked) [Example 133]	400 to 800
O=C1Nc2ccccc2C(c2ccccc2)=NC1Nc1nnc(-c2ccccc2OC2CCOCC2)o1 (centres unmarked) [Example 239]	> 800
Cc1nc(-c2nnc(NC3N=C(c4ccccc4)c4ccccc4NC3=O)o2)ccc1F (centres unmarked) [Example 110]	> 800
O=C1Nc2c(Cl)cccc2C(c2ccccc2)=NC1Nc1nnc(-c2ccccc2N2CCOCC2)o1 (centres unmarked) [Example 362]	> 800
CS(=O)(=O)Cc1nnc(NC2N=C(c3ccccc3)c3ccccc3NC2=O)o1 (centres unmarked) [Example 194]	> 800
O=C1Nc2ccccc2C(c2ccccc2)=N[C@@H]1Nc1nnc(-c2ncc(C(F)(F)F)cc2N[C@H]2CCC[C@H]2O)o1 [Example 422]	400 to 800
O=C1Nc2ccccc2C(c2ccccc2)=NC1Nc1nnc(-c2cn(-c3ccc(F)cn3)nc2N2CCOCC2)o1 (centres unmarked) [Example 448]	< 400
O=C1Nc2ccccc2C(c2ccccc2)=N[C@H]1Nc1nnc(-c2ccc(N3CCOCC3)cc2)o1 [Example 124b]	> 800
CC(C)c1nnc(NC2N=C(c3ccccc3)c3ccccc3NC2=O)o1 (centres unmarked) [Example 188]	> 800
O=C1Nc2ccccc2C(c2ccccc2)=N[C@@H]1Nc1cc(-c2ccccc2)cnn1 [Example 462]	> 800
O=C1Nc2ccccc2C(c2ccccc2)=N[C@@H]1Nc1nnc(-c2ccc(C3CC3)nc2N2CCOCC2)o1 [Example 154]	< 400
O=C1Nc2ccccc2C(c2ccccc2)=NC1Nc1nnc(-c2cccc(-n3ccnc3)c2)o1 (centres unmarked) [Example 212]	> 800
O=C1Nc2ccccc2C(c2ccccc2)=N[C@@H]1Nc1nnc(-c2ncc(C(F)(F)F)cc2N2CCOc3ccccc32)o1 [Example 468]	> 800
O=C1Nc2ccccc2C(c2ccccc2)=N[C@@H]1Nc1nnc(-c2ncc(C(F)(F)F)cc2N2CCC(O)CC2)o1 [Example 328]	> 800
O=C1Nc2ccccc2C(c2ccccc2)=N[C@@H]1Nc1nnc(-c2ncc(C(F)(F)F)cc2N2CCOC3CC32)o1 (mixture of isomers) [Example 466]	< 400
O=C1Nc2ccccc2C(c2ccccc2)=NC1Nc1nnc(-c2ccc(-n3cncn3)cc2N2CCOCC2)o1 (centres unmarked) [Example 128]	400 to 800
O=C1Nc2ccccc2C(c2ccccc2)=N[C@@H]1Nc1nnc(-c2cnc(N3CCOCC3)nc2)o1 [Example 165]	400 to 800
O=C1Nc2ccccc2C(c2ccccc2)=N[C@@H]1Nc1nnc(-c2nc(-c3ccc(F)cn3)sc2N2CCOCC2)o1 [Example 389]	< 400
O=C1Nc2ccccc2C(c2ccccc2)=NC1Nc1ccc(-c2ccc(F)cc2)nn1 (centres unmarked) [Example 374]	> 800
O=C1Nc2ccccc2C(c2ccccc2)=N[C@@H]1Nc1nnc(-c2nc(C3(O)CCC3)sc2N2CCOCC2)o1 [Example 455]	< 400

Structure (SMILES)	EC50 [nM]
O=C1Nc2ccccc2C(c2ccccc2)=N[C@@H]1Nc1nnc(-c2cnc(-n3cncn3)nc2N2CCOCC2)o1 [Example 173]	> 800
O=C1Nc2ccccc2C(c2ccccc2)=NC1Nc1nnc(-c2cc(F)cnc2N2CCOCC2)o1 (centres unmarked) [Example 145]	400 to 800
N#Cc1ccc(-c2nnc(N[C@H]3N=C(c4ccccc4)c4ccccc4NC3=O)o2)c(-c2ccsc2)c1 [Example 309]	> 800
Cc1nc(-c2nnc(N[C@H]3N=C(c4ccccc4)c4ccccc4NC3=O)o2)cs1 [Example 343]	> 800
O=C1Nc2ccccc2C(c2ccccc2)=NC1Nc1nnc(-c2ccc(N3CCOCC3)nc2)o1 (centres unmarked) [Example 115]	< 400
O=C1Nc2ccccc2C(c2ccccc2)=NC1Nc1nnc(-c2ccc(-n3ccc(C(F)(F)F)n3)cc2)o1 (centres unmarked) [Example 202]	> 800
CS(=O)(=O)c1cnc(-c2nnc(N[C@H]3N=C(c4ccccc4)c4ccccc4NC3=O)o2)c(N2CCOCC2)c1 [Example 332]	> 800
O=C1Nc2ccccc2C(c2ccccc2)=NC1Nc1nnc(-c2cccnc2N2CCCCC2)o1 (centres unmarked) [Example 241]	> 800
N#Cc1ccc(-c2nnc(N[C@H]3N=C(c4ccccc4)c4ccccc4NC3=O)o2)c(N2CCOCC2)c1 [Example 157]	< 400
Cc1nc2ccc(-c3nnc(NC4N=C(c5ccccc5)c5ccccc5NC4=O)o3)cc2s1 (centres unmarked) [Example 187]	400 to 800
Cc1ccc(-c2nnc(N[C@H]3N=C(c4ccccc4)c4ccccc4NC3=O)o2)c(N2CCOC[C@H]2C)n1 [Example 286]	< 400
O=C1Nc2ccccc2C(c2ccccc2)=N[C@@H]1Nc1nnc(-c2oc3ncccc3c2N2CCOCC2)o1 [Example 404]	< 400
O=C1Nc2ccccc2C(c2ccccc2)=NC1Nc1nnc(-c2ccccc2NCc2ccccn2)o1 (centres unmarked) [Example 235]	> 800
Cn1ncc(-c2nnc(N[C@H]3N=C(c4ccccc4)c4ccccc4NC3=O)o2)c1N1CCOCC1 [Example 177]	> 800
CCOC1(c2nc(-c3nnc(N[C@H]4N=C(c5ccccc5)c5ccccc5NC4=O)o3)c(N3CCOCC3)s2)CCC1 [Example 458]	< 400
Cc1cc(-c2nnc(N[C@H]3N=C(c4ccccc4)c4ccccc4NC3=O)o2)n(C2CCOCC2)n1 [Example 432]	> 800
CC(C)(C)c1nnc(NC2N=C(c3ccccc3)c3ccccc3NC2=O)o1 (centres unmarked) [Example 189]	> 800
N#Cc1ccc(-c2cnc(NC3N=C(c4ccccc4)c4ccccc4NC3=O)o2)cc1 (centres unmarked) [Example 368]	400 to 800
N#Cc1ccc(N2CCOCC2)c(-c2nnc(N[C@H]3N=C(c4ccccc4)c4ccccc4NC3=O)o2)n1 [Example 324]	< 400
Cc1nsc(N2CCOCC2)c1-c1nnc(N[C@H]2N=C(c3ccccc3)c3ccccc3NC2=O)o1 [Example 465]	400 to 800
O=C1Nc2ccccc2C(c2ccccc2)=N[C@@H]1Nc1nnc(-c2nc(-c3ccccc3F)sc2N2CCOCC2)o1 [Example 427]	< 400
